{
  "source": "patent US20080038321A1",
  "about": "“PROPHYLACTIC/THERAPEUTIC COMPOSITIONS FOR LIVER DISEASES” (Ajinomoto Co., Inc., priority 2004, published 2008)",
  "key": {"malic enzyme (ME) gene": {"tested_on": "malic enzyme (ME) gene", "experiment": "Liver gene expression profiling in GK rats (Gene Chip Rat Genome U34A Array): ME", "type": "in vivo", "details": "8 weeks, CON group = 1.00", "method": "Gene expression profiling was conducted using samples containing equivalent amounts of genes in the liver of individuals in the individual groups. The gene expression profiling was carried out with the Gene Chip Rat Genome U34A Array (Affymetrix Inc.). […] This is because the two genes relate to steatogenesis.\nThe mRNA levels are expressed while defining the level in the CON group as 1.00."}, "TRB3": {"tested_on": "TRB3", "experiment": "Liver gene expression in high-fat diet GK rats after 6-week administration (quantitative PCR): TRB3", "type": "in vivo, rat", "excerpt": "The mRNA levels are expressed while defining the level in the SD group as 1.00. <Primer Sequence>"}, "[1]": {"tested_on": "GK rats fed with high-fat diets", "experiment": "GK rats fed with high-fat diets: body weight, fasting glucose, insulin, triglyceride, liver triglyceride"}, "[2]": {"details": "before administration (baseline), HFD with about 6% L-Asp or 0.01% pioglitazone"}, "[3]": {"details": "week 3, HFD with about 6% L-Asp or 0.01% pioglitazone"}, "[4]": {"details": "week 6, HFD with about 6% L-Asp or 0.01% pioglitazone"}},
  "note": "“Also recorded” adds a separate entry of the source.",
  "data": [
    {"smiles": "N[C@@H](CC(=O)O)C(=O)O", "note": "[L-Asp, L-aspartic acid]", "values": [
      {"measurement": "ME mRNA level in liver", "setting": "malic enzyme (ME) gene; 3% L-Asp diet (3AS)", "result": 0.55},
      {"measurement": "ME mRNA level in liver", "setting": "malic enzyme (ME) gene; 6% L-Asp diet (6AS)", "result": 0.62},
      {"measurement": "TRB3 mRNA level in liver", "setting": "TRB3; HFD + Asp, HFD = 1.00 in table, n = 6, mean", "result": 0.58},
      {"measurement": "TRB3 expression relative to HFD group", "setting": "TRB3; HFD plus Asp group", "result": 0.58, "unit": "time"},
      {"measurement": "lipid droplet accumulation around the hepatic portal vein region (histological study)", "setting": "[1]; HFD plus Asp group", "result": "improved (reduced) lipid droplet accumulation"},
      {"measurement": "increase in fasting blood glucose level and fasting plasma insulin level (insulin resistance)", "setting": "[1]; HFD plus Asp group compared with HFD group", "result": "less increase in these parameters; also recorded: substantially equivalent to that of the pioglitazone group"},
      {"measurement": "fasting plasma triglyceride", "setting": "[1]; HFD plus Asp group compared with SD group", "result": "decreased fasting plasma triglyceride"},
      {"measurement": "Fasting blood glucose level", "setting": "[1]; [2]", "result": "100 ± 8", "unit": "mg/dL"},
      {"measurement": "Fasting insulin level", "setting": "[1]; [2]", "result": "0.5 ± 0.3", "unit": "ng/mL"},
      {"measurement": "Fasting triglyceride level", "setting": "[1]; [2]", "result": "92 ± 20", "unit": "mg/dL"},
      {"measurement": "Fasting blood glucose level", "setting": "[1]; [3]", "result": "124 ± 7", "unit": "mg/dL"},
      {"measurement": "Fasting insulin level", "setting": "[1]; [3]", "result": "1.6 ± 0.4", "unit": "ng/mL"},
      {"measurement": "Fasting triglyceride level", "setting": "[1]; [3]", "result": "77 ± 14", "unit": "mg/dL"},
      {"measurement": "Fasting blood glucose level", "setting": "[1]; [4]", "result": "110 ± 10", "unit": "mg/dL"},
      {"measurement": "Fasting insulin level", "setting": "[1]; [4]", "result": "1.5 ± 0.2", "unit": "ng/mL"},
      {"measurement": "Fasting triglyceride level", "setting": "[1]; [4]", "result": "70 ± 16", "unit": "mg/dL"},
      {"measurement": "Triglyceride content in liver", "setting": "[1]; [4]", "result": "28 ± 5", "unit": "mg/g"}
    ]}
  ]
}
